Laboratory results as given in US5792784A, “Coupling product obtained from histamine and an amino acid” (Babizhayev; Marc, priority 1993, dated 1998).
Values belong to the compound of their own block, whether it stands above or below them.

Columns and labels:
[1] = Inhibition of linoleic acid peroxidation (Fe/ascorbic acid; TBA/MDA); assay type: biochemical; settings: 25 mM (mixture: 25 mM each), linoleic acid 0.25 mg/ml; for MDA per mg of linoleic acid: control 7.95
Experimental: oxidation substrate: linoleic acid (0.25 mg/ml), free radicals generating system: Fe/ascorbic acid detection: thiobarbituric acid (TBA)/malondialdehyde (MDA)

[2] = Inhibition of phosphatidylcholine liposome peroxidation (Fe/ascorbic acid; TBA/MDA); settings: for MDA per mg of phospholipids: control 4.4
Excerpt: oxidation substrate: phosphatidylcholine liposomes
free radicals generating system : Fe/ascorbic acid detection: thiobarbituric acid (TBA)/malondialdehyde (MDA)

[3] = Inhibition of deoxyribose oxidation (superoxide from xanthine oxidase/hypoxanthine; TBA/MDA detection); assay type: biochemical; settings: 10 mM
Excerpt: Several in vitro tests have been carried out in order to reveal the evoked different antioxidant properties.
Experimental procedure described by J. M. C. Gutteridge in Biochemistry Journal, vol. 224 (1984), p. 761-767: oxidation substrate: deoxyribose
Superoxide anions production system: xanthine oxidase/hypoxanthine detection: thiobarbituric acid/malondialdehyde (MDA)

[4] = "Peroxidase" type activity on liposome model: reduction of phosphatidylcholine hydroperoxides (PC-OOH); assay type: biochemical
Experimental: The "peroxidase" type activity also has been evaluated on a "liposome" model. The phosphatidylcholine hydroperoxides (PC-OOH) are prepared according to a similar procedure to the one already described for the linoleic acid monoperoxide.
The peroxide species reduction is followed by dosing the remaining peroxides according to the method laid down by Hicks M and Gebicki J. M.--Anal. Biochem, vol 99, (1979), p. 249-253.

[5] = test system: gingival and buccal mucosa; assay: Repairing activity on the mucosa in stomatitis gingivitis; assay type: in vivo, patients; settings: aqueous gel 0.28%
Excerpt: We have been able to study this action on stomatitis gingivitis of various origin (dental prothesis badly adapted, the taking by mistake of a corrosive liquid, and colbaltotherapy of the oropharyngeal aera.
In all the cases, the causes of deterioration of the gingival and buccal mucosa have been stopped. Over and above the classical treatments that were adapted and systematically given, was given to 50% of the patients, an aqueous orange flavour gel containing 0.28% of N-acetyl-3-phenyl-3-aminopropionyl-histamine.

[6] = Protection of micro seaweed oil against oxidation (malondialdehyde dosage, one month); settings: 20 mmol per L oil
Excerpt: The pseudo-dipeptides products also can be used to protect cosmetic oils easily oxidizable, rich in unsaturated fatty acids formulated in cosmetic or dietetic.
It has been necessary to add 15 to 25 mmol of pseudo-dipeptides products of the invention per liter of oil according to the following formulation: […]
20 mmol of acetylated b-alanyl-histamine oil extracted from micro seaweed cultured in sea water very rich in unsaturated fatty acids, including EPA qs for 1L.
We have compared the ageing of this protected oil to the non-protected oil at the end of a month by the malondialdehyde dosage.

cataract = assay: Cataract patients: modification of the visual acuity at the end of 24 months; assay type: in vivo; settings: 1% in isotonic saline, only one daily local dose
Excerpt: This example concerns the utilization of the β-alanyl-histamine to treat patients affected by cataract.
The study has been designed for a prospective evaluation of the modifications of the lens opacity in patients effected by cataract. All the patients have undergone an initial ophtalmic examination. It involved the making of the medical historical record of the patient, a measurement of the visual acuity at a maximum correction, direct or indirect ophtalmoscopies, an evaluation of the opacities with the slit lamp, a clinical grading of the lens after maximal mydriasis, a classification according to the cataract type, and lens pictures by retroillumination. Moreover, samples of blood have been taken at the beginning, then in follow-up for chemical analysis.
The general view has allowed to establish the initial state of patients before the treatment (definition of "base line").
Follow-up of ophtalmic examinations were carried out every two weeks for two months, then every month. They included maximum visual acuity after correction, direct or indirect ophtalmoscopies, a slit lamp examination, and after a maximum dilation of the pupil (excluding patients with primary open-angle glaucoma), a clinical lens grading, a classification of the cataract. Pictures also have been taken on lens observed by retroillumination or with the slit lamp.
In this study, differents groups have been determined, to be seen:
A group reference 1, with non-treated patients (5 patients, 7 eyes) […]
A group 3, has been submitted to the same treatment than the group 2, stimulated by an "attack type of treatment" during the first two weeks: 2 subcon-junctival junctival injections twice a week of 0.10 to 0.15 ml of the saline defined for the group 2 (3 patients, 4 eyes).
A group 4, which was given a local dose by way of an eye drop of isotonic saline twice a day (5 patients 7 eyes), the group 4 being like the group 1, a reference group.
Following the protocol described above, we determine the values of the optic density of the lens according to its opacity as well as the visual acuity, and the whole for 24 months. Considering these two parameters, we obtain tables giving results concerning the modification of the visual acuity at the end of 24 months in Tables 1 and 2, and the results concerning the modification of the visual opacity at the end of 24 months in Tables 3 and 4.

[7] = Tests with peroxidized compounds: reducing behaviour; assay type: biochemical
[8] = "Peroxidase" activity: reduction of 13-monoperoxide of linoleic acid (L-OOH); assay type: biochemical; settings: 10 mM; 13-monoperoxide linoleic acid 0.5 mM; control 36.7
Experimental: Lipid peroxides evolution is monitored with the help of 3 methods:
1°) spectrophotometric measure at 233 nm
(O. S. Privett, C. Nickell, W. O. Lundberg, and P. D. Bayer, dans J.Am.Oil Chem. Soc, Vol 32 (1955), P.505-511
2°) Iodometric dosage: M.Hicks' and J. M. Gebicki's method, Analytical Biochemistry, vol 99 (1979), p 249-253.
3°) Chromatography on silica gel plate (hexane/ether/acetic acid 8/7/0.1).
(a) 13-monoperoxide linoleic acid 0.5 mM without reducing agent (preparation according to H. W. Gardner's method Lipids, Vol.10 (1975), p. 248-252).

gastric ulcer = settings: rats with limited food-intake-time; cited from earlier work
murine splenocytes = assay: Immunostimulating activity in vitro on murine splenocytes (tritiated thymidine incorporation); assay type: cell-based; settings: average of three measures
Excerpt: The procedure is extracted from: J. Kunert-Radek, H. Stepien, K. Lyson and M. Pawlikowski--"Effects of calcium channel modulators on the proliferation of mouse spleen lymphocytes in vitro"--Agents and Actions, vol. 29, Nos 3-4 (1990), p. 254-258.
The cell proliferation is followed by the measurement of the extent of incorporation of tritriated thymidine in the cells, expressed in numbers of desintegrations per mn, deducted from the background.
The results obtained with an immunostimulator of reference, concanavaline A, are given as a comparison.
The immunostimulating effect is expressed by an Index of Stimulation (IS) [formula]
The given values are corresponding to the average of three measures.

Compound: NCCc1c[nH]cn1 [Histamine, histamine]
- % inhibition [1]: -32%
- MDA per mg of linoleic acid [1]: 10.15 mol MDA per mg of linoleic aci
- % inhibition ([2]; 1 M (so in the source)): -45%
- MDA per mg of phospholipids ([2]; 1 M (so in the source)): 6.4 mol MDA per mg of phospholipid
- % inhibition ([2]; 10 M (so in the source)): -63%
- MDA per mg of phospholipids ([2]; 10 M (so in the source)): 6.8 mol MDA per mg of phospholipid

Compound: N[C@@H](Cc1c[nH]cn1)C(=O)O [Histidine]
- % inhibition ([2]; 1 mM): -48%
- MDA per mg of phospholipids ([2]; 1 mM): 6.6 mol MDA per mg of phospholipid

Compound: c1c[nH]cn1 [Imidazole]
- % inhibition [1]: 11%
- MDA per mg of linoleic acid [1]: 6.95 mol MDA per mg of linoleic aci

- % inhibition of deoxyribose oxidation [3]: 37%
Compound: NCCC(=O)N[C@@H](Cc1c[nH]cn1)C(=O)O [L-carnosine, β-alanyl-histidine, reference compound]
- % inhibition [1]: 59%
- MDA per mg of linoleic acid [1]: 3.24 mol MDA per mg of linoleic aci
- number of moles of PC-OOH reduced/initial number of moles of PC/hour ([4]; 10 mM): 3.16 × 10^-3 moles of PC-OOH reduced/initia
- number of moles of PC-OOH reduced/initial number of moles of PC/hour ([4]; 25 mM): 3.65 × 10^-3 moles of PC-OOH reduced/initia
- MDA per mg of phospholipids ([2]; 10 mM): 2.0 mol MDA per mg of phospholipid

Compound: CC(=O)NC(CC(=O)NCCc1c[nH]cn1)c1ccccc1 (stereo not shown) [N-acetyl-3-phenyl-3-aminopropionyl-histamine]
- tolerance [5]: excellent tolerance

Compound: CC(=O)NCCC(=O)NCCc1c[nH]cn1 [N-acetyl-β-alanyl-histamine]
- protection against oxidation (malondialdehyde dosage) [6]: proves well the activity of the acetylated-β-alanyl-histamine in the protection against oxidation
- results of eye drop treatment versus those previously obtained (cataract): identical to the ones previously obtained

- "peroxidase" activity [8]: 312.5 mol of L-OOH reduced/hour
Compound: [BH4-].[Na+] [NaBH4, sodium borohydride, reference compound]
- reducing behaviour towards peroxidized compounds [7]: inhibits in an identical way the reaction of degradation

Compound: NCCC(=O)O [β-alanine]
- % inhibition [1]: 0%
- MDA per mg of linoleic acid [1]: 7.91 mol MDA per mg of linoleic aci

Compound: N- (3-aminopropionyl)--L-histidinato zinc [Z-103]
- gastric ulcer treatment (gastric ulcer): good results

Compound: concanavaline A [reference compound]
- Index of Stimulation (IS) (murine splenocytes; 2.5 μg/ml): 4.8
- Index of Stimulation (IS) (murine splenocytes; 5 μg/ml): 25.1
- Index of Stimulation (IS) (murine splenocytes; 10 μg/ml): 20.5
- Index of Stimulation (IS) (murine splenocytes; 25 μg/ml): 12.6
